What was measured:
[1] = molecular target: T1, CDK2/CycE (Homo sapiens, UniProt P24941); test: CDK2/CycE kinase assay (TR-FRET, 2 mM ATP); type: biochemical; conditions: 2 mM ATP (high ATP); median; read-out: CDK2/CyclinE, 2 mM ATP (high ATP), IC50 (median)
T1 construct: purchased ProQinase GmbH (Freiburg, Germany); host or cells: insect cells (Sf9)
Outline: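 GST-tagged human CDK2 and CycE from Sf9 cells, about 10 ng/ml, pre-incubated 15 min at 22 °C with compound in Tris/HCl pH 8.0 buffer. Reaction with 2 mM ATP and 0.75 µM biotinylated peptide for 25 min at 22 °C. Phospho-RB antibody TR-FRET (665/620 nm ratio) read after 1 h; data normalised to no-inhibitor and no-enzyme controls.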

[2] = molecular target: T2, CDK12 (nuclear staining in CAL-120 cells) (Homo sapiens, UniProt Q9NYV4); test: CDK12 nuclear protein level: immunofluorescence/high content analysis (CAL-120); type: cell-based; conditions: for DC50: CAL-120 cells, 24 h, immunofluorescence, 50% reduction of nuclear CDK12 staining intensity, median, read-out: CDK12 degradation IF, DC50- [mol/l] (median); for (IC50 CDK12 high ATP) to (Degradation DC50 CDK12) ratio: ratio of IC50 CDK12 high ATP kinase assay to DC50 CDK12 degradation (IF, CAL-120)
T2 construct: endogenous in cells; host or cells: CAL-120 human breast cancer cells (DSMZ ACC 459)
T2 sequence (Q9NYV4 whole entry): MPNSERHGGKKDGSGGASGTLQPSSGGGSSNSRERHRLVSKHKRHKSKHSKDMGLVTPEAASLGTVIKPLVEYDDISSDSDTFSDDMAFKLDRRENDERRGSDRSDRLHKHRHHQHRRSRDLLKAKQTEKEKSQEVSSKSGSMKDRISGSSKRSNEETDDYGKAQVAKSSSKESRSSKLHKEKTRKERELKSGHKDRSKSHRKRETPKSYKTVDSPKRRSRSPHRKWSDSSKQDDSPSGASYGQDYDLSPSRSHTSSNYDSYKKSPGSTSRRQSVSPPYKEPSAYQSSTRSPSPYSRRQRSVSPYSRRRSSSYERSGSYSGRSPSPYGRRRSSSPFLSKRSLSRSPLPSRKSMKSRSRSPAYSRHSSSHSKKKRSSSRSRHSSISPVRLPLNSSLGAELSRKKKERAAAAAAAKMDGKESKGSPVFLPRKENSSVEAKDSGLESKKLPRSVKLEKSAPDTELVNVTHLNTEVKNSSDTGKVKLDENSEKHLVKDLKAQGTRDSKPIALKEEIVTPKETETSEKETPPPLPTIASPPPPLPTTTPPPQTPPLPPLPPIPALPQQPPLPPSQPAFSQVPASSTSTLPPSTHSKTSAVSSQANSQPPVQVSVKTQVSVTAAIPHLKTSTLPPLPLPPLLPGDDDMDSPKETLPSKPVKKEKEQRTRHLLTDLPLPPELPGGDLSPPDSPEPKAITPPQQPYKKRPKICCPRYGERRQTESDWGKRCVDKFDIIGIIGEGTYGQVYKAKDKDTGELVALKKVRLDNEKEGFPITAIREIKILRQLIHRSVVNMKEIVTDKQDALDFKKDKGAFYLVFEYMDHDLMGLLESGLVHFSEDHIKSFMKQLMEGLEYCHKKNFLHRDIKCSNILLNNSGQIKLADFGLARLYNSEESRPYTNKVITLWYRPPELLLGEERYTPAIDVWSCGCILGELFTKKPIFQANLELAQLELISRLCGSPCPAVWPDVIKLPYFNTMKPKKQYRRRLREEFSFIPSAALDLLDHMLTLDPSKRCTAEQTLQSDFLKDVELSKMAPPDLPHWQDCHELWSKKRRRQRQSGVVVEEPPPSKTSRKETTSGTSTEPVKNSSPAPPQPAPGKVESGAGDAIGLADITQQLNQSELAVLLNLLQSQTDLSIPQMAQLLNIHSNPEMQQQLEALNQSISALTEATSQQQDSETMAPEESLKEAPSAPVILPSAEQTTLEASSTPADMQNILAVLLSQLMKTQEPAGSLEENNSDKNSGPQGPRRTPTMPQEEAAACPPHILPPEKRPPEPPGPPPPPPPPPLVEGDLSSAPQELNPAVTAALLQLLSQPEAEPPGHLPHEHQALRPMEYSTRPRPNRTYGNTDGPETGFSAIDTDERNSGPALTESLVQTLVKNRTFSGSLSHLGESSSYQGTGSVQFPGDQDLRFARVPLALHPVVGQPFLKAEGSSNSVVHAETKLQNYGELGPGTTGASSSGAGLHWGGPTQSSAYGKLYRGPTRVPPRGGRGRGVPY
T2 sequence (O75909 whole entry partner): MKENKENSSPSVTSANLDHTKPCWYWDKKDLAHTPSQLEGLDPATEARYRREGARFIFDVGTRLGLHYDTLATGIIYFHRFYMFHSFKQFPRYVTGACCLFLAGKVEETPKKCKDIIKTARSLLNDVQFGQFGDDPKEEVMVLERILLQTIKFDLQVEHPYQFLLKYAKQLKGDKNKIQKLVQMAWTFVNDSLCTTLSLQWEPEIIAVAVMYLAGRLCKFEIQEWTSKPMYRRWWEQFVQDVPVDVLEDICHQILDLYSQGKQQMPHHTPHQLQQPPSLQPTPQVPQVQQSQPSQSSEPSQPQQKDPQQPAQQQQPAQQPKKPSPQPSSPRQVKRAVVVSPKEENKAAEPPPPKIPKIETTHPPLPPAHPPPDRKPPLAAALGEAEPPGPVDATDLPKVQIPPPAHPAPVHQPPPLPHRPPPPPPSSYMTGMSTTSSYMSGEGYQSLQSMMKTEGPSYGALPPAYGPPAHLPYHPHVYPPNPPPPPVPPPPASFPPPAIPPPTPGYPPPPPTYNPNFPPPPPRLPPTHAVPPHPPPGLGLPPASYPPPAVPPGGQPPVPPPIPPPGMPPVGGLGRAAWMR
Outline: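 CAL-120 cells were treated with compound for 24 h at 37 °C, fixed with PFA and immunostained for CDK12. Nuclear CDK12 intensity was quantified by automated image analysis and normalized to DMSO and control. DC50 is the concentration giving 50% reduction of nuclear staining.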

IC50 [1] [µM] | DC50 [2] [nM] | (IC50 CDK12 high ATP) to (Degradation DC50 CDK12) ratio [2] | SMILES
> 19.7 | 17.9 | >1120 | CCNC1CCN(c2nc(NCc3nc4ccccc4[nH]3)n3ncc(Br)c3n2)CC1 [Example 300]
> 20 | 33.9 | >581 | Fc1ccc2[nH]c(CNc3nc(N4CCOCC4)nc4c([C@@H]5CC5(F)F)cnn34)nc2c1 (single isomer, unassigned) [Example 315, 8-[(1R or S)-2,2-difluorocyclopropyl]-N-[(5-fluoro-1H-benzimidazol-2-yl)methyl]-2-(morpholin-4-yl)pyrazolo[1,5-a][1,3,5]triazin-4-amine]
8.43 | 74.6 | 167 | OCC1CN(c2nc(NCc3nc4ccccc4[nH]3)n3ncc(Br)c3n2)C1 [Example 304, [1-(4-{[(1H-benzimidazol-2-yl)methyl]amino}-8-bromopyrazolo[1,5-a][1,3,5]triazin-2-yl)azetidin-3-yl]methanol]
5.06 | 3.53 | >5662 | NC1CCN(c2nc(NCc3nc4ccccc4[nH]3)n3ncc(Br)c3n2)CC1 [Example 256, 2-(4-aminopiperidin-1-yl)-N-[(1H-benzimidazol-2-yl)methyl]-8-bromopyrazolo[1,5-a][1,3,5]triazin-4-amine]
> 20 | 6.15 | >3251 | CN1CCN(c2nc(NCc3nc4cc(F)c(F)cc4[nH]3)n3ncc(C4CC4)c3n2)CC1 [Example 311, 8-cyclopropyl-N-[(5,6-difluoro-1H-benzimidazol-2-yl)methyl]-2-(4-methylpiperazin-1-yl)pyrazolo[1,5-a][1,3,5]triazin-4-amine]
> 19.5 | 4.22 | 1968 | CN1CCN(c2nc(NCc3nc4cc(Cl)ccc4[nH]3)n3ncc(C(F)(F)F)c3n2)CC1 [Example 298, N-[(5-chloro-1H-benzimidazol-2-yl)methyl]-2-(4-methylpiperazin-1-yl)-8-(trifluoromethyl)pyrazolo[1,5-a][1,3,5]triazin-4-amine]
1.79 | 1.71 | 8023 | Brc1cnn2c(NCc3nc4ccccc4[nH]3)nc(N3C[C@@H]4C[C@H]3CN4)nc12 [Example 270, N-[(1H-benzimidazol-2-yl)methyl]-8-bromo-2-[(1S,4S)-2,5-diazabicyclo[2.2.1]heptan-2-yl]pyrazolo[1,5-a][1,3,5]triazin-4-amine]
> 20 | 23.4 | 294 | c1ccc2[nH]c(CNc3nc(N4CCOCC4)nc4c(C5CCC5)cnn34)nc2c1 [Example 263, N-[(1H-benzimidazol-2-yl)methyl]-8-cyclobutyl-2-(morpholin-4-yl)pyrazolo[1,5-a][1,3,5]triazin-4-amine]
2.32 | 7.78 | 564 | Brc1cnn2c(NCc3nnc(-c4ccccc4)[nH]3)nc(N3CCOCC3)nc12 [Example 24, 8-bromo-2-(morpholin-4-yl)-N-[(5-phenyl-4H-1,2,4-triazol-3-yl)methyl]pyrazolo[1,5-a][1,3,5]triazin-4-amine]
2.06 | 3.52 | 235 | CN(CC(C)(C)O)c1nc(NCc2nc3c(F)cccc3[nH]2)n2ncc(C3CC3)c2n1 [Example 295, 1-[(8-cyclopropyl-4-{[(4-fluoro-1H-benzimidazol-2-yl)methyl]amino}pyrazolo[1,5-a][1,3,5]triazin-2-yl)(methyl)amino]-2-methylpropan-2-ol]
2.1 | 52.4 | 66 | NC1(C(F)(F)F)CCN(c2nc(NCc3nc4ccccc4[nH]3)n3ncc(Br)c3n2)C1 (stereo not shown) [Example 266, 2-[3-amino-3-(trifluoromethyl)pyrrolidin-1-yl]-N-(1H-benzimidazol-2-ylmethyl)-8-bromo-pyrazolo[1,5-a][1,3,5]triazin-4-amine]
> 20 | 8.47 | 1171 | Fc1ccc2[nH]c(CNc3nc(N4CCOCC4)nc4c(C5CC5(F)F)cnn34)nc2c1 (single isomer, unassigned) [Example 314, 8-[(1R or S)-2,2-difluorocyclopropyl]-N-[(5-fluoro-1H-benzimidazol-2-yl)methyl]-2-(morpholin-4-yl)pyrazolo[1,5-a][1,3,5]triazin-4-amine]
> 20 | 11 | 155 | Fc1cccc2[nH]c(CNc3nc(N4CCOCC4)nc4c(CC(F)(F)F)cnn34)nc12 [Example 303, N-[(4-fluoro-1H-benzimidazol-2-yl)methyl]-2-(morpholin-4-yl)-8-(2,2,2-trifluoroethyl)pyrazolo[1,5-a][1,3,5]triazin-4-amine]
> 20 | 12.7 | 146 | CN(CC(C)(C)O)c1nc(NCc2nc3cc(Cl)c(Cl)cc3[nH]2)n2ncc(C3CC3)c2n1 [Example 306, 1-[(8-cyclopropyl-4-{[(5,6-dichloro-1H-benzimidazol-2-yl)methyl]amino}pyrazolo[1,5-a][1,3,5]triazin-2-yl)(methyl)amino]-2-methylpropan-2-ol]
> 20 | 8.47 | >2361 | c1ccc2[nH]c(CNc3nc(N4C[C@@H]5C[C@H]4CO5)nc4c(C5CC5)cnn34)nc2c1 [Example 254, N-[(1H-benzimidazol-2-yl)methyl]-8-cyclopropyl-2-[(1S,4S)-2-oxa-5-azabicyclo[2.2.1]heptan-5-yl]pyrazolo[1,5-a][1,3,5]triazin-4-amine]
10.2 | 27.9 | >320 | CC1(O)CCN(c2nc(NCc3nc4ccccc4[nH]3)n3ncc(Br)c3n2)C1 (single isomer, unassigned) [Example 282, (3R or S)-1-(4-{[(1H-benzimidazol-2-yl)methyl]amino}-8-bromopyrazolo[1,5-a][1,3,5]triazin-2-yl)-3-methylpyrrolidin-3-ol]
> 20 | 11.4 | >500 | Fc1ccc2[nH]c(CNc3nc(N4CCOCC4)nc4c(C5CCCC5)cnn34)nc2c1F [Example 262, 8-cyclopentyl-N-[(4,5-difluoro-1H-benzimidazol-2-yl)methyl]-2-(morpholin-4-yl)pyrazolo[1,5-a][1,3,5]triazin-4-amine]
1.4 | 7.16 | 362 | N[C@H]1CN(c2nc(NCc3nc4ccccc4[nH]3)n3ncc(Br)c3n2)CC12CC2 [Example 259, 2-[(7R)-7-amino-5-azaspiro[2.4]heptan-5-yl]-N-[(1H-benzimidazol-2-yl)methyl]-8-bromopyrazolo[1,5-a][1,3,5]triazin-4-amine]
2.58 | 0.145 | 6727 | N[C@@H]1CN(c2nc(NCc3nc4ccccc4[nH]3)n3ncc(Br)c3n2)CC12CC2 [Example 251, 2-[(7S)-7-amino-5-azaspiro[2.4]heptan-5-yl]-N-[(1H-benzimidazol-2-yl)methyl]-8-bromopyrazolo[1,5-a][1,3,5]triazin-4-amine]
> 20 | 6.48 | >2626 | c1ccc2[nH]c(CNc3nc(N4C[C@@H]5CCCN[C@@H]5C4)nc4c(C5CC5)cnn34)nc2c1 [Example 249, N-[(1H-benzimidazol-2-yl)methyl]-8-cyclopropyl-2-[(4aS,7aS)-octahydro-6H-pyrrolo[3,4-b]pyridin-6-yl]pyrazolo[1,5-a][1,3,5]triazin-4-amine]
> 5.19 | 0.878 | 758 | CN(CC(C)(C)O)c1nc(NCc2nc3c(F)c(F)ccc3[nH]2)n2ncc(C3CC3)c2n1 [Example 292, 1-[(8-cyclopropyl-4-{[(4,5-difluoro-1H-benzimidazol-2-yl)methyl]amino}pyrazolo[1,5-a][1,3,5]triazin-2-yl)(methyl)amino]-2-methylpropan-2-ol]
 | 1.71 | 3446 | CN1CCN(c2nc(NCc3nc4c(F)cccc4[nH]3)n3ncc(C(F)(F)F)c3n2)CC1 [Example 293, N-[(4-fluoro-1H-benzimidazol-2-yl)methyl]-2-(4-methylpiperazin-1-yl)-8-(trifluoromethyl)pyrazolo[1,5-a][1,3,5]triazin-4-amine]
 | 1.44 | 512 | Fc1ccc2[nH]c(CNc3nc(N4CCOCC4)nc4c(C(F)(F)F)cnn34)nc2c1 [Example 273, N-[(5-fluoro-1H-benzimidazol-2-yl)methyl]-2-(morpholin-4-yl)-8-(trifluoromethyl)pyrazolo[1,5-a][1,3,5]triazin-4-amine]

SMILES | IC50 [1] [µM] | DC50 [2] [nM] | (IC50 CDK12 high ATP) to (Degradation DC50 CDK12) ratio [2]
Fc1cccc2[nH]c(CNc3nc(N4C[C@H]5CC[C@@H](C4)N5)nc4c(C5CC5)cnn34)nc12 [Example 296, 8-cyclopropyl-2-[(1R,5S)-3,8-diazabicyclo[3.2.1]octan-3-yl]-N-[(4-fluoro-1H-benzimidazol-2-yl)methyl]pyrazolo[1,5-a][1,3,5]triazin-4-amine] | 5.61 | 2.55 | 971

From patent publication US20230117034A1, “PYRAZOLOTRIAZINES” (Bayer Aktiengesellschaft, priority 2019, published 2023)
